Reference: EP2042491A1, “Pyridazines as fungicides” (Bayer CropScience AG, priority 2007, dated 2009)
Like-named read-outs stand apart in the source and are kept apart here.

What was measured:
Venturia inaequalis = Venturia inaequalis test (apple) / protective; type: in vivo; details: 100 ppm active compound; protective spray on young apple plants; evaluated 10 days after inoculation; 0% = as control, 100% = no infection
Source text: (§1) Zur Herstellung einer zweckmäßigen Wirkstoffzubereitung vermischt man 1 Gewichtsteil Wirkstoff mit den angegebenen Mengen Lösungsmittel und Emulgator und verdünnt das Konzentrat mit Wasser auf die gewünschte Konzentration.
Zur Prüfung auf protektive Wirksamkeit werden junge Pflanzen mit der Wirkstoffzubereitung in der angegebenen Aufwandmenge besprüht. Nach Antrocknen des Spritzbelages werden die Pflanzen mit einer wäßrigen Konidiensuspension des Apfelschorferregers Venturia inaequalis inokuliert und verbleiben dann 1 Tag bei ca. 20 °C und 100% relativer Luftfeuchtigkeit in einer Inkubations-kabine.
Die Pflanzen werden dann im Gewächshaus bei ca. 21 °C und einer relativen Luftfeuchtigkeit von ca. 90% aufgestellt.
(§2) 10 Tage nach der Inokulation erfolgt die Auswertung. Dabei bedeutet 0% ein Wirkungsgrad, der demjenigen der Kontrolle entspricht, während ein Wirkungsgrad von 100% bedeutet, daß kein Befall beobachtet wird.

Botrytis cinerea = Botrytis cinerea test (bean) / protective; type: in vivo; details: 100 ppm active compound; protective spray on young bean plants; lesion size evaluated 2 days after inoculation; 0% = as control, 100% = no infection
Source text: as §1
Zur Prüfung auf protektive Wirksamkeit werden junge Pflanzen mit der Wirkstoffzubereitung in der angegebenen Aufwandmenge besprüht. Nach Antrocknen des Spritzbelages werden auf jedes Blatt 2 kleine mit Botrytis cinerea bewachsene Agarstückchen aufgelegt. Die inokulierten Pflanzen werden in einer abgedunkelten Kammer bei ca. 20 °C und 100% relativer Luftfeuchtigkeit aufgestellt.
2 Tage nach der Inokulation wird die Größe der Befallsflecken auf den Blättern ausgewertet. Dabei bedeutet 0% ein Wirkungsgrad, der demjenigen der Kontrolle entspricht, während ein Wirkungsgrad von 100% bedeutet, daß kein Befall beobachtet wird.

Septoria tritici = Septoria tritici test (wheat) / protective; type: in vivo; details: 1000 ppm active compound; protective spray on young wheat plants; evaluated 21 days after inoculation; 0% = as control, 100% = no infection
Source text: as §1
(§3) Zur Prüfung auf protektive Wirksamkeit werden junge Pflanzen mit der Wirkstoffzubereitung in der angegebenen Aufwandmenge besprüht. Nach Antrocknen des Spritzbelages werden die Pflanzen mit einer Sporensuspension von Septoria tritici besprüht. Die Pflanzen verbleiben 48 Stunden bei 20 °C und 100 % relativer Luftfeuchtigkeit in einer Inkubationskabine.
Die Pflanzen werden in einem Gewächshaus bei einer Temperatur von ca. 15 °C und einer relativen Luftfeuchtigkeit von 80 % aufgestellt.
21 Tage nach der Inokulation erfolgt die Auswertung. Dabei bedeutet 0% ein Wirkungsgrad, der demjenigen der Kontrolle entspricht, während ein Wirkungsgrad von 100% bedeutet, daß kein Befall beobachtet wird.

Leptosphaeria nodorum = Leptosphaeria nodorum test (wheat) / protective; type: in vivo; details: 1000 ppm active compound; protective spray on young wheat plants; evaluated 10 days after inoculation; 0% = as control, 100% = no infection
Source text: as §1
as §3, with “Leptosphaeria nodor um” for “Septoria tritici”
Die Pflanzen werden in einem Gewächshaus bei einer Temperatur von ca. 20 °C und einer relativen Luftfeuchtigkeit von 80 % aufgestellt.
as §2

Pyricularia oryzae = type: in vivo; details: 500 ppm active compound; protective spray on young rice plants; evaluated 7 days after inoculation; 0% = as control, 100% = no infection
Alternaria solani = type: in vivo; details: 168 h, 500 ppm
Experimental: as §1
Zur Prüfung auf protektive Wirksamkeit bespritzt man junge Tomatenpflanzen mit der Wirkstoffzubereitung in der angegebenen Aufwandmenge. 1 Tag nach der Behandlung werden die Pflanzen mit einer Sporensuspension von Alternaria solani inokuliert und stehen dann 24h bei 100% rel. Feuchte und 20°C. Anschließend stehen die Pflanzen bei 96% rel. Luftfeuchtigkeit und einer Temperatur von 20 C.
7 Tage nach der Inokulation erfolgt die Auswertung. Dabei bedeutet 0 % ein Wirkungsgrad, der demjenigen der Kontrolle entspricht, während ein Wirkungsgrad von 100 % bedeutet, dass kein Befall beobachtet wird.

[1] = HPLC on reversed-phase C18, 40°C, 0.1% aqueous formic acid / acetonitrile, linear gradient 10-95% acetonitrile
Sphaerotheca fuliginea = Sphaerotheca fuliginea test (cucumber) / protective; type: in vivo; details: 500 ppm active compound; protective spray on young cucumber plants; evaluated 7 days after inoculation; 0% = as control, 100% = no infection
Source text: as §1
Zur Prüfung auf protektive Wirksamkeit bespritzt man junge Gurkenpflanzen mit der Wirkstoffzubereitung in der angegebenen Aufwandmenge. 1 Tag nach der Behandlung werden die Pflanzen mit einer Sporensuspension von Sphaerotheca fuliginea inokuliert. Anschließend werden die Pflanzen in einem Gewächshaus bei 70 % relativer Luftfeuchtigkeit und einer Temperatur von 23 °C aufgestellt.
7 Tage nach der Inokulation erfolgt die Auswertung. Dabei bedeutet 0 % ein Wirkungsgrad, der demjenigen der Kontrolle entspricht, während ein Wirkungsgrad von 100 % bedeutet, daß kein Befall beobachtet wird.

Row | Compound | Wirkungsgrad (Venturia inaequalis) | Wirkungsgrad (Botrytis cinerea) | Wirkungsgrad (Septoria tritici) | Wirkungsgrad (Leptosphaeria nodorum) | Wirkungsgrad (Pyricularia oryzae) | Wirkungsgrad (Alternaria solani) | logP^a) ([1]; Table 1) | chromatographic logP (physchem) | Wirkungsgrad (Sphaerotheca fuliginea) | logP^a) ([1]; Table 2)
1 | Cc1nnc(Cl)c(-c2c(F)cccc2Cl)c1N1CCC(C)CC1 [1-93, 3-Chlor-4-(2-chlor-6-fluorphenyl)-6-methyl-5-(4-methylpiperidin-1-yl)pyridazin] | ≥ 70% | ≥ 70% | ≥ 70% | ≥ 70% | ≥ 70% | ≥ 70% | 4,11 | 4.11 |  | 
2 | Cc1nnc(Cl)c(-c2c(F)cccc2Cl)c1N[C@H](C)C(C)C [1-100] |  |  |  |  | ≥ 70% | ≥ 70% |  | 3.22 | ≥ 70% | 
3 | Cc1nnc(Cl)c(-c2c(F)cccc2Cl)c1OC1CCCCC1 [2-59] |  |  |  |  | ≥ 70% |  |  | 4.25 | ≥ 70% | 
4 | Cc1nnc(Cl)c(-c2c(F)cccc2Cl)c1Oc1ccc(Cl)cc1 [2-61, 3-Chlor-4-(2-chlor-6-fluorphenyl)-5-(4-chlorphenoxy)-6-methylpyridazin] | ≥ 70% |  | ≥ 70% | ≥ 70% |  |  |  |  |  | 4,13
